Common to all, as to set-up: species or system Hartley type male guinea pigs
Assay [1] relates to thromboxane A2. Briefly: in vitro antagonistic action to thromboxane A2 (U-46619-induced shrinkage of excised bronchial segments). Conditions: guinea pig bronchial segments, U-46619 10^-7; read-out: antagonistic action to Tx A2 (IC50). As to the method:
(§1) The IC50 values indicative of the in vitro antagonistic actions of the compounds of this invention to thromboxane A2 and leukotriene D4 were determined by the use of the following test system.
(§2) Bronchial segments and ileal segments excised from Hartley type male guinea pigs 350 to 450 g in body weight were suspended under respective loads of 0.3 g and 0.5 g in Magnus baths containing Tyrode solution and kept exposed to passage therethrough of a mixed gas consisting of 95% of oxygen and 5% of carbon dioxide. After the suspended segments were stabilized for about one hour, U-46619 (equivalent to thromboxane A2, produced by Kaiman K. K.) was added in a concentration of 10^-7 to the bath containing the bronchial segments and leukotriene D4 (produced by Wako Pure Chemicals Co., Ltd.) in a concentration of 10^-8 M to the bath containing the […] contrast to the amounts of shrinkage produced in the bronchial segments and ileal segments, the amounts of shrinkage produced by U-46619 in the bronchial segments and the amounts of shrinkage produced by leukotriene D4 in the ileal segments both in the presence of the compounds of this invention added in varying concentrations were measured. The IC50 values were computed based on the results of the measurement.

Assay [2] concerns leukotriene D4. Kind of assay: in vitro antagonistic action to leukotriene D4 (LTD4-induced shrinkage of excised ileal segments). Conditions: guinea pig ileal segments, leukotriene D4 10^-8 M. How it is done: as §1, §2
Assay [3] has as its system leukotriene D4. Kind of assay: in vitro antagonistic action to leukotriene D4 (LTD4-induced shrinkage of excised bronchial segments). Conditions: guinea pig bronchial segments, leukotriene D4 10^-8 M. How it is done:
as §1, §2

One may read the IC50 as the concentration that inhibits the measured activity by half. For `O=C(O)COc1ccc(CCCS(=O)(=O)c2ccc(Cl)cc2)cc1NC(=O)c1ccc(OCc2ccc3ccccc3n2)cc1`, the values for the IC50 in assay [1] and in assay [2] were 26 nM and 370 nM, respectively.

For the compound `O=C(O)COc1ccc(CCCS(=O)(=O)c2ccc(Cl)cc2)cc1NC(=O)c1cccc(OCc2ccc3ccccc3n2)c1` [drawing 21], the IC50 came out at 57 nM in assay [1], 1.3 nM in assay [2] and 4 nM in assay [3].

Take `CCCc1c(OCCCC(=O)Nc2cc(CCCS(=O)(=O)c3ccc(Cl)cc3)ccc2OCC(=O)O)ccc(C(C)=O)c1O`: the values for the 50% inhibitory concentration (IC50) in assay [1], in assay [2] and in assay [3] were 50 nM, 430 nM and 70 nM, respectively.

For the compound `CCCc1c(OCC(=O)Nc2cc(CCCS(=O)(=O)c3ccc(Cl)cc3)ccc2OCC(=O)O)ccc(C(C)=O)c1O`, the half-inhibitory concentration (IC50) worked out at 4.5 nM in assay [1] and 3800 nM in assay [2].

As for `O=C(O)COc1ccc(CCCS(=O)(=O)c2ccc(Cl)cc2)cc1NC(=O)c1cccc(OCc2ccc3ccccc3n2)c1` [drawing 22], the IC50 in assay [1] was determined as 30 nM; in assay [3], 150 nM.

(Values after patent publication US5179105A, “Phenoxyacetic acid compounds, method for production thereof, and pharmaceutical preparations containing same” (Terumo Kabushiki Kaisha, priority 1990, dated 1993).)
